In data set [1] the target is T1, 5-HT2A receptor (Homo sapiens (Human), UniProt P28223). In words: cell-based. It is filed as cell-based. Conditions: for Emax: HEK-293T, read-out: β-arrestin2 signaling agonistic activity (percentage in parentheses); for Gq signaling agonistic activity (percentage in parentheses): value in parentheses; for pathway selectivity: β-arrestin2 recruitment versus G protein signaling: without activating the G protein signaling pathway. As to the method: On the second day, the confluent cells from a 6 cm culture dish were digested and reseeded into a 96-well plate at a volume of 100 μL of culture medium per well. On the third day, the drugs were added for testing. The 96-well plate was taken out from the cell incubator to decant the culture medium. 40 μL of the substrate coelenterazine 400a (final concentration 5 μM) was added to each well, and then 20 μL of different drugs were added sequentially from left to right, ensuring that the final concentration of the drug decreased gradually from bottom to top, with two replicates per treatment. Finally, the prepared samples were loaded on a plate reader for signal quantification. The readout values reflected the recruitment of β-arrestin2 to the membrane or the dissociation of G protein trimer. The former indicated the degree of activation of the downstream β-arrestin2 signaling pathway mediated by the 5-HT2A receptor, and the latter indicated the degree of activation of the downstream G protein signaling pathway mediated by the 5-HT2A receptor.

For data set [2], the target named is T1, 5-HT2A receptor. In words: radioligand competitive binding assay, [3H]-LSD, 293T membranes.
Data set [3] relates to head-twitch response in mice. It is filed as in vivo, C57BL/6J mice. The settings on record: intraperitoneal, at all doses tested, first 30 minutes. An excerpt: Method: The head-twitch response in mice was detected via oscillatory signals to characterize hallucinogenic effects. Mice (strain C57BL/6J, purchased from Shanghai Lingchang Biotech Co., Ltd.) were anesthetized with 2% isoflurane. A small portion of the scalp was removed from the center of the dorsal cranium. A custom-made small neodymium magnet (4 mm×4 mm×2 mm) was attached to the center of the dorsal cranium using dental resin. The magnet N-S poles were kept parallel to the dorsoventral aspect of the implant. The mice were allowed to recover for 1 week before testing. To record precise head movements, the mice were placed in a glass beaker with a diameter of 12 cm, surrounded by 150 turns of #30 enameled copper wire. The output signal from the coil was recorded using a PowerLab/4SP instrument installed with LabChart V8.1.16 software. Coil voltage was amplified, low-pass filtered at 10 kHz to remove radio frequency interference, and sampled at 40 kHz. For the detection of head-twitch response in mice, LabChart data were processed with a digital band-pass filter at 40 to 200 Hz. The head-twitch response in mice was identified by searching for sinusoidal wavelets that met the following criteria: 1) containing more than two bipolar peaks; 2) amplitude exceeding background noise level; 3) duration less than 120 milliseconds. 1 hour prior to the test, the mice were transferred to the test room for acclimatization. Subsequently, the mice were placed in the beaker for 30 minutes, and baseline head-twitch response values were recorded. Immediately after baseline recording, the mice were injected intraperitoneally with the test compound, and head-twitch response values were recorded for 1 to 2 hours post-dose, depending on the compound used. Statistical values were taken from the first 30 minutes.

The test system of data set [4] is corticosterone-exposed mice. In words: tail suspension test after 21 days of corticosterone exposure. It is filed as in vivo, Male C57BL/6 mice. As to the method: Antidepressant efficacy test method: Male C57BL/6 mice (8 weeks old, purchased from Shanghai Lingchang Biotech Co., Ltd.) were administered a solution of corticosterone in their drinking water at a concentration of 25 μg/mL using drinking water bottles for 21 days. Mice were maintained on a 12-hour light cycle. Corticosterone-containing drinking water was refreshed every other day for the first two weeks, and gradually replaced with corticosterone-free drinking water every two days for the last week. […] TST procedure: mice in the control group and the administration group were suspended by their tails with tape for 6 minutes, and their behavior was recorded by a video camera. The immobility time during the last 4 minutes was manually timed and assessed by an observer who was unaware of the treatment conditions.

For data set [5] the following is noted: for AUMC0-inf / AUMC0-t / Kel: 5 mg/kg IP, mice.
Experimental: (§1) The concentration of the compound in mouse plasma was determined using LC-MS/MS, and the relevant pharmacokinetic parameters were calculated to investigate the pharmacokinetic characteristics of the compound in mice.
(§2) Experimental design: 60 male C57 mice (purchased from Suzhou JOINN Laboratory Animal Co., Ltd.) were randomly divided into groups based on weight, with 3 mice per group. The mice were fasted with water ad libitum for 12 to 14 hours one day before test-article administration and fed 4 hours after the administration. The route of administration was intraperitoneal (IP), with a dosing concentration of 1 mg/mL, and a solvent formulation of 10% DMSO+90% saline.
(§3) Sample collection: 0.1 mL of blood was collected from the orbit under isoflurane anesthesia before and after test-article administration, transferred to EDTA K2 tubes, and placed on an ice bath. The samples were centrifuged at 5000 rpm for 10 minutes at 4° C., and the plasma was collected. […] Prior to analysis, all plasma samples were stored at −80° C.
(§4) Data processing: Drug concentrations in plasma and brain tissues were measured using LC-MS (API4000QTRAP triple quadrupole tandem mass spectrometer, equipped with an electrospray ionization source (ESI)). The data collection and control system software utilized was Analyst 1.5.1 (Applied Biosystems). The sample peak integration in the spectrum was conducted automatically; the ratio of the sample peak area to the internal standard peak area was used as an indicator to perform regression with the concentration of the sample. Regression method: Linear regression with a weighting factor of 1/X^2. Pharmacokinetic parameters were analyzed using a non-compartmental model in WinNonlin Professional v6.3 (Pharsight, USA). Cmax is the measured maximum plasma concentration, the area under the plasma concentration-time curve (AUC(0→0)) was calculated by the trapezoidal method, and Tmax is the time to reach peak plasma concentration after administration. Experimental data are presented as “Mean±Standard Deviation” (Mean±SD, n≥3) or “Mean” (n=2).
Another data set is described as follows: in vivo. The settings on record: male, C57, mouse, ip, 5 mg/kg; for half-life: 5 mg/kg IP, mice.
In the next data set the target is dopamine D2 receptor (Homo sapiens (Human), UniProt P14416). Put plainly: radioligand competitive binding assay, [3H]-Methylspiperone, 293T membranes. The settings on record: affinity for the dopamine D2 receptor.
Setting [6] is: first value of cell, NA = no agonistic activity, read-out: Gq signaling agonistic activity (potency).
Setting [7] is: first value of cell, NA = no agonistic activity, read-out: β-arrestin2 signaling agonistic activity (potency).
Setting [8] is: affinity for the 5-HT2A receptor, [3H]-LSD.

Values joined by “and” are separate entries in the source; they are usually repeats but may differ in a detail not shown here. Equal values may be shown once. Read-outs that look alike come from different tables or passages of the source. Some results are limits rather than exact numbers.

T1 sequence (P28223 whole entry): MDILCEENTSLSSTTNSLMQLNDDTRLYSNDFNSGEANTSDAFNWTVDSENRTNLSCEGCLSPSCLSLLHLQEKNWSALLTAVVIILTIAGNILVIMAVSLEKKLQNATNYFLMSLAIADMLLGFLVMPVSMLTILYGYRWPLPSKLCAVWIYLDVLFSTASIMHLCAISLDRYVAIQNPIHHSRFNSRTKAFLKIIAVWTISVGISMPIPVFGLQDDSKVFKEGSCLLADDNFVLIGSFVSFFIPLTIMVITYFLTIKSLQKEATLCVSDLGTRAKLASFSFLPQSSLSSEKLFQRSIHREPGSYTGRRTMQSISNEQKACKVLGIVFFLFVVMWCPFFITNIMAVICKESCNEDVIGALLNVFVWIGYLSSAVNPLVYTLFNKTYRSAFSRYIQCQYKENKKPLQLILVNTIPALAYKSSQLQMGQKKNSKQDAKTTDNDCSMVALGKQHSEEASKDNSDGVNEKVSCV
Chain of dopamine D2 receptor (P14416 whole entry, species assumed): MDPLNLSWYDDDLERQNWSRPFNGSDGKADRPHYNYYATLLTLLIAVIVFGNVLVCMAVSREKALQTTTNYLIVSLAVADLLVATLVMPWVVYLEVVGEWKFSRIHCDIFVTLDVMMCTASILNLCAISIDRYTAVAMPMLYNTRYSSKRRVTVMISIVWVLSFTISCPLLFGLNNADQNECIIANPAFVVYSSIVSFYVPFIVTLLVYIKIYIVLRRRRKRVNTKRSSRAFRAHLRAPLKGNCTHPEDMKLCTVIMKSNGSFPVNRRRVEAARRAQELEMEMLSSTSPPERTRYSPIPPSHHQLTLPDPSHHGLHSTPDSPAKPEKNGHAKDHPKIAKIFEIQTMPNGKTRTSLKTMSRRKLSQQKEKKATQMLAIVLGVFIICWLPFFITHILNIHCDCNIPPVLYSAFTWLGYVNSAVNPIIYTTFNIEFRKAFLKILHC
Experimental for dopamine D2 receptor: Method: The affinity of the compounds of the present disclosure for the dopamine D2 receptor was determined using a radioligand competitive binding assay as follows. In the first step, a cell membrane component containing dopamine D2 receptor was prepared. […] 48 hours post-transfection, the 10 cm culture dish was taken out from the cell incubator and the cultured cells had expressed the dopamine D2 receptor. The culture medium was aspirated using a vacuum pump, and 3 mL of lysis buffer was added to each culture dish. The cells were then placed in a cold room at 4° C. for 10 minutes. After the cells were detached, they were transferred to a 15 mL centrifuge tube and centrifuged at 1500 rpm for 5 minutes at 4° C., and the supernatant was discarded. The cell pellet was transferred to a tissue homogenizer, and 3 mL of lysis buffer was added. Sufficient grinding was applied to break the cells. The cell suspension was then equally aliquoted into several Eppendorf tubes and centrifuged at 12000 rpm for 5 minutes at 4° C., and the supernatant was discarded. The resulting precipitate was the cell membrane component containing the dopamine D2 receptor. […] The machine readout value reflected the amount of [3H]-Methylspiperone bound on the membrane, and after further data processing, the affinity Ki values of different compounds for the dopamine D2 receptor were obtained.
Experimental for in vivo: as §1, §2, §3, §4

As for `CN1CCN2c3c(cccc31)[C@@H]1CN(Cc3ccccc3O)CC[C@@H]12` [Compound I-2], at 5-HT2A receptor [1], the Emax stood at 68.4% and the “Gq signaling agonistic activity (percentage in parentheses)” value turned out to be 65.3%. Further, the EC50 at 5-HT2A receptor [1] (setting [6]) was determined as 309 nM. Further, the EC50 at 5-HT2A receptor [1] (setting [7]) came to 229 nM.
With `COc1cccc(CCN2CC[C@H]3[C@@H](C2)c2cccc4c2N3CCN4C)c1` [Compound I-4], on 5-HT2A receptor [1], the Emax came out at 44.2% and the “Gq signaling agonistic activity (percentage in parentheses)” value is recorded as 13.7%. The Ki – broadly, a measure of affinity in units of concentration, obtained from inhibition or displacement – on 5-HT2A receptor [2] was < 100 nM.
On to `COc1ccccc1CCN1CC[C@@H]2[C@H](C1)c1cccc3c1N2CCCN3C` (single isomer, unassigned) [Compound I-13], for which, at 5-HT2A receptor [1], the EC50 stood at 181 nM, the Emax was determined as 51.4% and the “pathway selectivity: β-arrestin2 recruitment versus G protein signaling” value (shortened to “pathway selectivity”) is “selectively activate the recruitment of β-arrestin2”. The inhibition constant (Ki) at 5-HT2A receptor [2] was < 100 nM. Besides, the inhibition constant (Ki) at 5-HT2A receptor [2] (setting [8]) is 34 nM.
Consider `COc1ccc(CCN2CC[C@H]3[C@@H](C2)c2cccc4c2N3CCN4C)cc1` [Compound I-5], for which, on 5-HT2A receptor [1], the EC50 worked out at 684 nM and the Emax was found to be 3.2%.
`COc1ccc(OC)c(CCN2CC[C@H]3[C@@H](C2)c2cccc4c2N3CCN4C)c1` [Compound I-8, (6bR,10aS)-8-(2,5-dimethoxy)-3-methyl-2,3,6b,7,8,9,10,10a-octahydro-1H-pyrido[3′,4′:4,5]pyrrolo[1,2,3-de]quinoxaline] showed a Ki at 5-HT2A receptor [2] (setting [8]) of 3060 nM.
Take `COc1ccccc1CCCN1CC[C@@H]2[C@H](C1)c1cccc3c1N2CCCN3C` (single isomer, unassigned) [Compound I-15]: at 5-HT2A receptor [1], the EC50 is 97.2 nM and the Emax amounted to 24.3%. Also, the inhibitory constant (Ki) at 5-HT2A receptor [2] is < 100 nM.
Turning to `CN1CCN2c3c(cccc31)[C@@H]1CN(CCc3ccccc3O)CC[C@@H]12` [Compound I-9, 2-(2-((6bR,10aS)-3-methyl-2,3,6b,9,10,10a-hexahydro-1H-pyrido[3′,4′:4,5]pyrrolo[1,2,3-de]quinoxalin-8(7H)-yl)ethyl)phenol], the EC50 on 5-HT2A receptor [1] amounted to 75.9 nM. Further, the Emax at 5-HT2A receptor [1] came out at 14.4%. Also, the Ki at 5-HT2A receptor [2] was < 100 nM; on 5-HT2A receptor [2] (setting [8]) it was 31 nM.
`COc1ccccc1CCCN1CC[C@H]2[C@@H](C1)c1cccc3c1N2CCCN3C` (single isomer, unassigned) [Compound I-14]: at 5-HT2A receptor [2], the Ki is < 100 nM.
Regarding `COc1ccccc1CCCN1CC[C@@H]2[C@H](C1)c1cccc3c1N2CCC3` (single isomer, unassigned) [Compound I-19], on 5-HT2A receptor [1], the EC50 is 562 nM, the Emax is 59.4% and the “pathway selectivity” value is “selectively activate the recruitment of β-arrestin2”. Moreover, at 5-HT2A receptor [2], the Ki was < 100 nM. In addition, at 5-HT2A receptor [2] (setting [8]), the affinity corresponds to a Ki of 18 nM.
With `COc1ccccc1CCCN1CC[C@H]2[C@@H](C1)c1cccc3c1N2CCCS3` (single isomer, unassigned) [Compound I-26], the figures for the Ki at 5-HT2A receptor [2] and on 5-HT2A receptor [2] (setting [8]) were < 100 nM and 93 nM, respectively.
Take `COc1ccccc1CN1CC[C@H]2[C@@H](C1)c1cccc3c1N2CCN3C` [Compound I-1]: at 5-HT2A receptor [1], the Emax was found to be 60.2% and the “Gq signaling agonistic activity (percentage in parentheses)” value was found to be 67.0%. Besides, on 5-HT2A receptor [1] (setting [6]), the EC50 came out at 120 nM. For the same compound, the EC50 at 5-HT2A receptor [1] (setting [7]) stood at 174 nM.
Consider `COc1ccccc1CCN1CC[C@H]2[C@@H](C1)c1cccc3c1N2CCCN3C` (single isomer, unassigned) [Compound I-12], for which the results for the Ki at 5-HT2A receptor [2] and on 5-HT2A receptor [2] (setting [8]) were < 100 nM and 190 nM, respectively.
`CN1CCN2c3c(cccc31)[C@@H]1CN(CCCc3ccccc3O)CC[C@@H]12` [Compound I-11, 2-(3-((6bR,10aS)-3-methyl-2,3,6b,9,10,10a-hexahydro-1H-pyrido[3′,4′:4,5]pyrrolo[1,2,3-de]quinoxalin-8(7H)-yl)propyl)phenol]: the Emax at 5-HT2A receptor [1] came out at 36.8%. Besides, on 5-HT2A receptor [1], the “Gq signaling agonistic activity (percentage in parentheses)” value was determined as 9.7%. Further, the results for the inhibition constant Ki at 5-HT2A receptor [2] and at 5-HT2A receptor [2] (setting [8]) were < 100 nM and 89 nM, respectively.
`COc1ccccc1CCCN1CC[C@@H]2[C@H](C1)c1cccc3c1N2CCO3` (single isomer, unassigned) [Compound I-23]: in data set [3], the “hallucinogenic effects (head-twitch response)” value is recorded as “did not induce hallucinogenic effects”. In addition, the “antidepressant effect in the mouse tail suspension test” value is on record as “remained significant” in data set [4] (10 mg/kg single-injection group, after 7 days); “remained significant” in data set [4] (10 mg/kg single-injection group, after 14 days); “significant antidepressant effect” in data set [4] (one day after a single administration). For the same compound, the AUMC0-inf in data set [5] (brain) is 1698 h · h · ng · g^−1; in data set [5] (plasma) it was 794 h · h · ng · mL^−1. Moreover, the AUMC0-t in data set [5] (brain) was found to be 1645 h · h · ng · g^−1; in data set [5] (plasma), 769 h · h · ng · mL^−1. Further, the Kel in data set [5] (brain) is 0.630 h⁻¹; in data set [5] (plasma), 0.678 h⁻¹. In addition, the MRT – broadly, a mean duration of stay, worked out from the concentration-time curve – in data set [5] (male, C57, mouse, in vivo, ip, 5 mg/kg) turned out to be 0.932 h; in “in vivo” (MRT) it was 1.47 h. For the same compound, the AUC0-t turned out to be 1816 ng·h/g in data set [5] (mouse, in vivo, ip, 5 mg/kg) and 537 ng·h/mL in the data set “in vivo”. Further, the Cmax (usually the maximum level reached in the sampled fluid or tissue) in the data set “in vivo” was 272 ng/mL and 1420 ng/g. Moreover, in “in vivo”, the Tmax (commonly the time at which the peak concentration occurs) turned out to be 0.5 h. For the same compound, the half-life (in general, the time in which the quantity being followed falls by half) in “in vivo” (T1/2, brain) is 1.1 h; in the data set “in vivo” (T1/2, plasma) it was 1.02 h.
Consider `COc1ccccc1CCCN1CC[C@@H]2[C@H](C1)c1cccc3c1N2CCCS3` [Compound I-27, (8aR,12aS)-11-(3-(2-methoxyphenyl)propyl)-6,7,8a,9,10,11,12,12a-octahydro-5H-pyrido[4,3-b][1,4]thiazepino[2,3,4-hi]indole], for which, on 5-HT2A receptor [1], the EC50 is 878 nM, the Emax is 35.7% and the “pathway selectivity” value is recorded as “selectively activate the recruitment of β-arrestin2”. Besides, on 5-HT2A receptor [2], the inhibition constant (Ki) is < 100 nM. The inhibition constant Ki on 5-HT2A receptor [2] (setting [8]) worked out at 8 nM.
For `COc1ccccc1CCCN1CC[C@H]2[C@@H](C1)c1cccc3c1N2CCC3` (single isomer, unassigned) [Compound I-18, 10-(3-(2-methoxyphenyl)propyl)-5,6,7a,8,9,10,11,11a-octahydro-4H-pyrido[3′,4′:4,5]pyrrolo[3,2,1-i]quinoline], the inhibitory constant (Ki) at 5-HT2A receptor [2] is < 100 nM.
`COc1ccccc1CCN1CC[C@H]2[C@@H](C1)c1cccc3c1N2CCN3C` [Compound I-3]: at 5-HT2A receptor [1], the Emax came to 39% and the “Gq signaling agonistic activity (percentage in parentheses)” value is reported as 20.2%. In addition, the Ki at dopamine D2 receptor is 1550 nM. In addition, the “hallucinogenic effects (head-twitch response)” value in data set [3] is given as “did not induce hallucinogenic effects”. Further, the Ki on 5-HT2A receptor [2] is < 100 nM.

These data come from patent US20250136601A1 (priority 2022, published 2025).
